Measured values reported in patent US10745395B2, “Compounds for their use as drugs for the treatment and/or the prevention of infection(s) caused by biofilm-forming bacteria” (CENTRE NATIONAL DE LA RECHERCHE SCIENTIFIQUE, priority 2014, dated 2020).

Key:
Type in all cases: cell-based, Pseudomonas aeruginosa
[1] = system: P. aeruginosa strain PAR 20 biofilm; test: Early biofilm model, Congo red staining; conditions: for absorbance (Congo red, biofilm formation): early biofilm, 0.9 mM, 492 nm
Experimental: (§1) P. aeruginosa biofilm was set-up in sterile plastic 96-well plates with adherent surface (Greiner Bio-One, USA).
(§2) Twenty microliter quantities of the bacterial stock suspensions, prepared as described above, were added to each well followed with 180 μl of sterile TSB. Final concentration of the bacteria was 1×10^8 CFU/ml.
(§3) The plates were centrifuged for 10 minutes at 2000 rpm to sediment bacteria on the bottom of each well and then incubated for 72 hours (37° C., aerobic conditions).
(§4) Biofilm quantity was determined using Congo red dye according to a modified procedure described by Allison et al. (Allison G C, Sutherland I W. A staining technique for bacteria and its correlation to extracellular carbohydrate production. J Microbiol Meth 2, 93-99 (1984)).
(§5) Briefly, at different time points (0, 6, 18, 24, 48 and 72 hours), the culture medium was gently removed from wells by using the pipette and immediately 200 μl of 0.1% Congo red solution was added. The plates were left for 30 minutes at room temperature and then 10 minutes before the end of staining, the plate was centrifuged for 10 minutes at 2000 rpm and then washed twice with buffered saline to remove unbound dye. Absorbance was measured at λ=492 nm wavelength using spectrophotometer (Awarness Technology Inc., Palm City, Fla., USA). All measurements were performed in triplicates and mean values±SD are given.
(§6) Early biofilm model: formation of early biofilm under influence of the tested substances was observed by filling wells of a 96-well plate with 20 μl of P. aeruginosa suspension and 180 μl of TSB, as described above. Tested iminosugars (compounds 1, 2, 3 and 4) were added immediately after setting-up the bacteria at a final concentration of 0.9 mM. Then, the plate was gently mixed and incubated for 48 hours at 37° C.
(§7) Biofilm formation and the number of viable bacteria were checked in parallel in the following time intervals: 0, 0.5, 8, 24, 48 hours, in accordance with the procedure described above. Biofilm thickness was estimated by staining it with Cango Red and measuring optical density while number of viable bacteria was performed using the standard viable count method. (Allison G C, Sutherland I W. A staining technique for bacteria and its correlation to extracellular carbohydrate production. J Microbiol Meth 2, 93-99 (1984)).
(§8) P. aeruginosa suspension cultures in TSB broth alone were used as a control.

[2] = system: P. aeruginosa strain PAR 5 biofilm; test: Early biofilm model, Congo red staining; conditions: for absorbance (Congo red, biofilm formation): 0.9 mM, 492 nm
Experimental: as §1, §2, §3, §4, §5, §6, §7, §8

[3] = system: P. aeruginosa strain PAR 50 biofilm; test: Early biofilm model, Congo red staining; conditions: for absorbance (Congo red, biofilm formation): early biofilm, 0.9 mM, 492 nm
Experimental: as §1, §2, §3, §4, §5, §6, §7, §8

[4] = system: P. aeruginosa strain PAR 20 biofilm; test: Mature biofilm model, Congo red staining; conditions: for absorbance (Congo red, biofilm development): mature biofilm, compound added 48 h after induction of biofilm
Experimental: as §4, §5
(§9) Mature biofilm model: the tested substances were added 48 hours after adherence of bacteria to the wells in a 96-well plate. The growth conditions of P. aeruginosa were exactly the same, as described above for the early biofilm model.
(§10) After the addition of iminosugars (compounds 1, 2, 3 and 4), the biofilm formation and the number of viable bacteria were checked in the following time intervals: 48, 48.5, 56, 72, 96 hours.

[5] = system: P. aeruginosa strain PAR 5 biofilm; test: Mature biofilm model, Congo red staining; conditions: for absorbance (Congo red, biofilm development): mature biofilm, compound added 48 h after induction of biofilm
Experimental: as §4, §5, §9, §10

[6] = system: P. aeruginosa strain PAR 50 biofilm; test: Mature biofilm model, Congo red staining; conditions: for absorbance (Congo red, biofilm development): mature biofilm, compound added 48 h after induction of biofilm
Experimental: as §4, §5, §9, §10

[7] = system: P. aeruginosa strain PAR 20; test: Number of viable bacteria in early and mature biofilm (viable count)
Experimental: as §7, §10
(§11) Numbers of viable bacteria contained in the early and mature biofilm were estimated on separate plates with wells filled with tested P. aeruginosa strains as described above (PAR 5, PAR 20, PAR 50).
(§12) At the same time intervals, biofilm content in each well was removed and mixed by multiple pippeting and transferred to sterile tubes. Then decimal dilutions of the bacterial suspension were made in TSB broth, plated on McConkey Agar (Oxoid), and incubated at 37° C. for 24 hours.
(§13) Numbers of colonies grown on platter were counted and total numbers of the viable bacteria calculated as colony forming units (CFU) per ml.
(§14) The results depict logs of CFU/ml for three P. aeruginosa strains: PAR 5, PAR 20 and PAR 50 measured at different time intervals (0 hours, 8 hours, 24 hours, 48 hours, 56 hours, 72 hours and 96 hours). The detection limit is 100 CFU/ml.

[8] = system: P. aeruginosa strain PAR 50; test: as above
Experimental: as §7, §10, §11, §12, §13, §14

[9] = system: P. aeruginosa strain PAR 5; test: as above
Experimental: as §7, §10, §11, §12, §13, §14

[10] = system: P. aeruginosa strain PAR 5 biofilm; test: Reduction of biofilm growth (percent vs culture control)
Excerpt: (§15) FIG. 4A represents the effect of the tested compounds (1, 2, 3 and 4) on exopolysaccharide biosynthesis in the early stages and mature P. aeruginosa biofilm formation, strain PAR 5. The abscissa represents the time (in hours) in order to differentiate early biofilm and mature biofilm, and the ordinate represents the percentage of the biofilm reduction.
as §6, §9
(§16) The effect of the tested compounds (1, 2, 3 and 4) on the reduction of biofilm growth has also been studied on the three P. aeruginosa strains PAR 5, PAR 20, PAR 50.
(§17) (Percent decrease in biofilm thickness was obtained as a mean value from 3 consecutive measurements of the Congo Red stained biofilm using spectrophotometer after addition of the tested iminosugars in comparison to control regarded as 100%).

[11] = system: P. aeruginosa strain PAR 20 biofilm; test: as above
Excerpt: as §15, with “4B” for “4A”, “20.” for “5.”
as §6, §9, §16, §17

[12] = system: P. aeruginosa strain PAR 50 biofilm; test: as above
Excerpt: as §15, with “4C” for “4A”, “50.” for “5.”
as §6, §9, §16, §17

[13] = in comparison with culture control

## OCC(O)C[C@H]1NC[C@H](O)[C@H](O)[C@H]1O (stereo partly drawn) [Compound 2, β-1-C-(2,3-dihydroxypropyl)-1,5-dideoxy-1,5-imino-L-arabinitol]
[1]; 8 hours
  absorbance (Congo red, biofilm formation): about 0.75 a.u.
[1]; 24 hours
  absorbance (Congo red, biofilm formation): about 0.9 a.u.
[1]; 48 hours
  absorbance (Congo red, biofilm formation): about 0.9 a.u.
[1]; [13]
  effect on formation of an early biofilm: inhibit the formation of an early biofilm
[2]; early biofilm
  biofilm formation at 8 hours, 24 hours and 48 hours: no biofilm formation
[2]; early biofilm, 8 hours
  absorbance (Congo red, biofilm formation): about 0.25 a.u.
[2]; early biofilm, 24 hours
  absorbance (Congo red, biofilm formation): about 0.25 a.u.
[2]; early biofilm, 48 hours
  absorbance (Congo red, biofilm formation): about 0.25 a.u.
[2]; [13]
  effect on formation of an early biofilm: inhibit the formation of an early biofilm
[3]; 8 hours
  absorbance (Congo red, biofilm formation): about 0.8 a.u.
[3]; 24 hours
  absorbance (Congo red, biofilm formation): about 0.7 a.u.
[3]; 48 hours
  absorbance (Congo red, biofilm formation): about 1.1 a.u.
[3]; [13]
  effect on formation of an early biofilm: inhibit the formation of an early biofilm
[4]
  influence on mature biofilm formation: weak influence
[4]; 48 hours
  absorbance (Congo red, biofilm development): about 0.6 a.u.
[4]; 56 hours
  absorbance (Congo red, biofilm development): about 0.7 a.u.
[4]; 72 hours
  absorbance (Congo red, biofilm development): about 1.1 a.u.
[4]; 96 hours
  absorbance (Congo red, biofilm development): about 2.0 a.u.
[5]
  influence on mature biofilm formation: weak influence
[5]; 48 hours
  absorbance (Congo red, biofilm development): about 0.75 a.u.
[5]; 56 hours
  absorbance (Congo red, biofilm development): about 1.0 a.u.
[5]; 72 hours
  absorbance (Congo red, biofilm development): about 1.25 a.u.
[5]; 96 hours
  absorbance (Congo red, biofilm development): about 1.5 a.u.
[6]
  influence on mature biofilm formation: weak influence
[6]; 48 hours
  absorbance (Congo red, biofilm development): about 2.0 a.u.
[6]; 56 hours
  absorbance (Congo red, biofilm development): about 1.75 a.u.
[6]; 72 hours
  absorbance (Congo red, biofilm development): about 1.75 a.u.
[6]; 96 hours
  absorbance (Congo red, biofilm development): about 2.0 a.u.
[7]; early biofilm, 0 h
  number of viable P. aeruginosa: 2 × 10^6 CFU/ml
[7]; early biofilm, 8 h
  number of viable P. aeruginosa: 4 × 10^7 CFU/ml
[7]; early biofilm, 24 h
  number of viable P. aeruginosa: 3 × 10^8 CFU/ml
[7]; early biofilm, 48 h
  number of viable P. aeruginosa: 1 × 10^9 CFU/ml
[7]; mature biofilm, 56 h
  number of viable P. aeruginosa: 4 × 10^8 CFU/ml
[7]; mature biofilm, 72 h
  number of viable P. aeruginosa: 3 × 10^7 CFU/ml
[7]; mature biofilm, 96 h
  number of viable P. aeruginosa: 3 × 10^8 CFU/ml
[8]; early biofilm, 0 h
  number of viable P. aeruginosa: 3 × 10^7 CFU/ml
[8]; early biofilm, 8 h
  number of viable P. aeruginosa: 2 × 10^8 CFU/ml
[8]; early biofilm, 24 h
  number of viable P. aeruginosa: 7 × 10^8 CFU/ml
[8]; early biofilm, 48 h
  number of viable P. aeruginosa: 1 × 10^8 CFU/ml
[8]; mature biofilm, 56 h
  number of viable P. aeruginosa: 6 × 10^9 CFU/ml
[8]; mature biofilm, 72 h
  number of viable P. aeruginosa: 1 × 10^9 CFU/ml
[8]; mature biofilm, 96 h
  number of viable P. aeruginosa: 9 × 10^9 CFU/ml
[9]; early biofilm, 0 h
  number of viable P. aeruginosa: 8 × 10^6 CFU/ml
[9]; early biofilm, 8 h
  number of viable P. aeruginosa: 2 × 10^7 CFU/ml
[9]; early biofilm, 24 h
  number of viable P. aeruginosa: 1 × 10^7 CFU/ml
[9]; early biofilm, 48 h
  number of viable P. aeruginosa: 1 × 10^7 CFU/ml
[9]; mature biofilm, 56 h
  number of viable P. aeruginosa: 4 × 10^8 CFU/ml
[9]; mature biofilm, 72 h
  number of viable P. aeruginosa: 2 × 10^8 CFU/ml
[9]; mature biofilm, 96 h
  number of viable P. aeruginosa: 5 × 10^8 CFU/ml
[10]; 8 hours of incubation
  reduction of biofilm growth: about 90%
[10]; 24 hours of incubation
  reduction of biofilm growth: about 90%
[10]; 48 hours of incubation
  reduction of biofilm growth: about 25%
[10]; 72 hours of incubation
  reduction of biofilm growth: about 10%
[10]; notably an early biofilm
  effect on biofilm growth: can reduce the biofilm growth
[11]; 8 hours of incubation
  reduction of biofilm growth: about 45%
[11]; 24 hours of incubation
  reduction of biofilm growth: about 45%
[11]; 48 hours of incubation
  reduction of biofilm growth: about 0%
[11]; 72 hours of incubation
  reduction of biofilm growth: about 0%
[11]; notably an early biofilm
  effect on biofilm growth: can reduce the biofilm growth
[12]; 8 hours of incubation
  reduction of biofilm growth: about 50%
[12]; 24 hours of incubation
  reduction of biofilm growth: about 70%
[12]; 48 hours of incubation
  reduction of biofilm growth: about 0%
[12]; 72 hours of incubation
  reduction of biofilm growth: about 20%
[12]; notably an early biofilm
  effect on biofilm growth: can reduce the biofilm growth
